This note sets out measurements from US20230096766A1, “AMINO ACID HAVING FUNCTIONAL GROUP CAPABLE OF INTERMOLECULAR HYDROGEN BONDING, PEPTIDE COMPOUND CONTAINING SAME AND METHOD FOR PRODUCTION THEREOF” (Chugai Seiyaku Kabushiki Kaisha, priority 2018, published 2023).

Series [1] in a line: Actual measurement of pKa of amino acid side chains by titration (Sirius T3) on three-residue peptides. Type of series: physicochemical. Conditions: for basic pKa / pKa: measured by titration (Sirius T3), 25° C., 0.15M; for basic pKa: amino acid X in three-residue peptide ZMeGly-X-MeGly-pip (Table 24); for pKa: amino acid X in three-residue peptide ZMeGly-X-MeGly-pip (Table 24, second part). On the procedure: pKas and basic pKas can be determined by a conventional method. For example, they can be measured by a method such as that described in Experimental Chemistry Lecture 5, “Thermal Measurements and Equilibrium”, p. 460 (edited by The Chemical Society of Japan, published by Maruzen Co., Ltd.). More specifically, they can be measured by a method described in Reference Example 3-1.
Herein, measurement of pKas of amino acid side chains was carried out according to the following procedure.
Sirius T3 (Sirius Analytical Instruments Ltd., Forest Row, East Sussex, RH18 5DW, UK)
0.15 M KCl was added to about 1 mg of a test substance as a powder or in about 100 μL of a 10 mM DMSO solution. When the test substance was a basic compound, 0.5 M HCl was added until pH 2 and the test substance was then titrated to pH 12 with 0.5 M KOH.
When the test substance was an acidic compound, 0.5 M KOH was added until pH 12 and the test substance was then titrated to pH 2 with 0.5 M HCl.
Titration operations were automatically performed by T3 manufactured by Sirius, and pKas were determined from the resulting titration curves using Sirius T3 Refinement software.
pKas were similarly determined using imipramine HCl, propranolol HCl, and warfarin as reference compounds, and were confirmed to be within the test results obtained in Sirius. pKas of amino acid side chains were determined by synthesizing a sequence in which the amino acid to be evaluated is introduced into the second residue (the position X in the following table) of a peptide composed of three residues as shown below.

The subject of series [2] is Caco-2. Put plainly: Membrane permeability test of cyclic peptides (Caco-2, modified/improved method of WO 2018/124162). (In general: Caco-2 cells form a polarised layer with tight junctions and transporters.)
For series [3], the system named is Caco-2.
Another series can be described thus: in vitro. To be noted: human, Caco-2, Caco-2 (cm/sec).
The mark [4] stands for this setting: amino acid side chain, Sirius T3 titration.

Where two headings read alike, the source gives them in different places. Where a SMILES comes first, the peptide text is derived from it. Bridges are numbered along the chain shown (N, C = ends). [ ]: non-standard residue; d: D form. The star is where a group is joined. NMePhe(3-Cl) = CN[C@@H](Cc1cccc(Cl)c1)C(=O)O; NMehPhe = CN[C@@H](CCc1ccccc1)C(=O)O; Ethyl(2-morpholino) = C1CN(CC*)CCO1; hhPhe = N[C@@H](CCCc1ccccc1)C(=O)O; NMeF = CN[C@@H](Cc1ccccc1)C(=O)O; hPhe = N[C@@H](CCc1ccccc1)C(=O)O; NMeD = CN[C@@H](CC(=O)O)C(=O)O; CH2CONHtBu = CC(C)(C)NC(=O)C*; NMeL = CN[C@@H](CC(C)C)C(=O)O; NMeV = CN[C@H](C(=O)O)C(C)C; NMeAbu = CC[C@H](NC)C(=O)O; NMeA = CN[C@@H](C)C(=O)O; Piperidide = C1CCN(*)CC1; dNMeA = CN[C@H](C)C(=O)O; NBuGly = CCCCNCC(=O)O; NPrGly = CCCNCC(=O)O; X2 = Fc1cncc(C*)c1; Sar = CNCC(=O)O; tBu = CC(C)(C)*

`N[C@@H](COCCN1CCOCC1)C(=O)O` [Ser(Et-2-Mor)]: the “basic pKa” value in series [1] is listed as 7.2.
Consider `CCCN1CC(=O)N(C)[C@@H](CC(C)C)C(=O)N[C@@H](CC(C)C)C(=O)N(C)[C@@H](Cc2ccccc2)C(=O)N(C)[C@@H](C)C(=O)N[C@H](C(=O)N2CCCCC2)CC(=O)N[C@H](CC(C)C)C(=O)N(C)[C@@H](Cc2ccccc2)C(=O)N[C@@H](COCC(=O)NC(C)(C)C)C(=O)N(C)[C@@H](CC(C)C)C(=O)N[C@@H]([C@@H](C)O)C1=O` [AP11] ([dL][NMeF]S(CH2CONHtBu)[NMeL]T[NPrGly][NMeL]L[NMeF][NMeA]D-Piperidide; lactam N-11), for which the “Caco-2” value in the series with Caco-2 [2] (membrane permeability of cyclic peptides, Caco-2) turned out to be 1.1e-06 cm/s.
On to `CS(=O)(=O)NC(=O)CC[C@H](N)C(=O)O` [Gln(Ms)], for which, in series [1] (setting [4]), the “measured pKa” value is reported as 3.8.
As for `CN[C@@H](CCN1CCC(F)(F)CC1)C(=O)O` [MeAbu(pip-4-F2)], the “basic pKa” value in series [1] was 6.7.
On the same count and under the same terms, next, `CN[C@@H](CCN1CCOCC1)C(=O)O` [MeAbu(Mor)]: 6.8.
Consider `CC(C)(CO)COC[C@H](N)C(=O)O` [Ser(2-Me2-PrOH), O-(3-hydroxy-2,2-dimethylpropyl)-L-serine], for which, in the series with Caco-2 [2] (pairwise comparison of matched cyclic peptides, result in words), the “membrane permeability compared with counterpart peptides” value is on record as “tended to have better membrane permeability than Ser(nPrOH)”.
As for `CN(C)CCOC[C@H](N)C(=O)O` [Ser(Et-2-NMe2)], in series [1] (setting [4]), the “measured basic pKa” value is given as 9.1.
As usually defined, the Papp is the rate of passage across a membrane or cell layer, normalised by area and donor concentration. Take `CC(C)C[C@H]1C(=O)N[C@H](C(=O)N2CCCCC2)CC(=O)N(C)[C@@H](C)C(=O)N[C@@H](CCCc2ccccc2)C(=O)N(C)[C@@H](CC(C)C)C(=O)N(C)[C@@H](Cc2ccccc2)C(=O)N[C@@H](C)C(=O)N(C)[C@@H](Cc2ccccc2)C(=O)N(C)[C@@H](C(C)C)C(=O)N[C@@H]([C@@H](C)O)C(=O)N(C)CC(=O)N1C` [pd191] ([NMeA][hhPhe][NMeL][NMeF]A[NMeF][NMeV]T[Sar][NMeL]D-Piperidide; lactam N-11): in the series with Caco-2 [3], the “Caco-2” value amounted to 1.5e-06 cm/s. This molecule displayed a Papp in the series “in vitro” of 1.5 ×10⁻⁶ cm/s.
Taken in the same sequence, the figures for `CC(C)C[C@H]1C(=O)N(C)[C@@H](Cc2ccccc2)C(=O)N[C@@H](COC(C)(C)C)C(=O)N(C)[C@@H](C)C(=O)N[C@H](C(=O)N2CCCCC2)CC(=O)N(C)[C@@H](C)C(=O)N(C)[C@@H](Cc2ccccc2)C(=O)N[C@@H](CCc2ccccc2)C(=O)N(C)[C@@H](CC(C)C)C(=O)N[C@@H]([C@@H](C)O)C(=O)N(C)CC(=O)N1C` [pd183] ([NMeA][NMeF][hPhe][NMeL]T[Sar][NMeL][NMeF]S(tBu)[NMeA]D-Piperidide; lactam N-11) were 2.1e-06 cm/s and 2.1 ×10⁻⁶ cm/s.
Taken in the same sequence, the figures for `CC(C)C[C@@H]1NC(=O)[C@H](Cc2ccccc2)N(C)C(=O)[C@@H](C)N(C)C(=O)C[C@@H](C(=O)N2CCCCC2)N(C)C(=O)[C@H](Cc2ccccc2)N(C)C(=O)[C@H](Cc2ccccc2)N(C)C(=O)[C@H](COC(C)(C)C)NC(=O)[C@H](C(C)C)N(C)C(=O)CN(C)C(=O)[C@H]([C@@H](C)O)NC(=O)[C@H](CC(C)C)N(C)C1=O` [pd199] ([dNMeA][NMeF]L[NMeL]T[Sar][NMeV]S(tBu)[NMeF][NMeF][NMeD]-Piperidide; lactam N-11) were 2.6e-06 cm/s and 2.6 ×10⁻⁶ cm/s.
Taken in the same sequence, the figures for `CCCN1CC(=O)N(C)[C@@H](Cc2ccccc2)C(=O)N[C@@H]([C@@H](C)CC)C(=O)N(C)[C@@H](Cc2ccccc2)C(=O)N[C@@H]([C@@H](C)O)C(=O)N(C)CC(=O)N(C)[C@@H](Cc2ccccc2)C(=O)N(C)[C@@H](CC(C)C)C(=O)N[C@@H](COC(C)(C)C)C(=O)N(C)[C@@H](C(C)C)C(=O)N[C@H](C(=O)N2CCCCC2)CC1=O` [pd195] ([NPrGly][NMeF]I[NMeF]T[Sar][NMeF][NMeL]S(tBu)[NMeV]D-Piperidide; lactam N-11) were 5e-06 cm/s and 5 ×10⁻⁶ cm/s.
Regarding `CC(C)C[C@H]1C(=O)N[C@@H](COC(C)(C)C)C(=O)N(C)[C@@H](Cc2ccccc2)C(=O)N(C)[C@@H](C)C(=O)N[C@H](C(=O)N2CCCCC2)CC(=O)N[C@H](C(C)C)C(=O)N(C)[C@@H](Cc2ccccc2)C(=O)N[C@@H](CCCc2ccccc2)C(=O)N(C)[C@@H](CC(C)C)C(=O)N[C@@H]([C@@H](C)O)C(=O)N(C)CC(=O)N1C` [pd192] ([dV][NMeF][hhPhe][NMeL]T[Sar][NMeL]S(tBu)[NMeF][NMeA]D-Piperidide; lactam N-11), the “Caco-2” value with Caco-2 [3] turned out to be 1.1e-06 cm/s. Moreover, the Papp in the series “in vitro” came to 1.1 ×10⁻⁶ cm/s.
Taken in the same sequence, the figures for `CC(C)C[C@H]1C(=O)N(C)[C@@H](CCc2ccccc2)C(=O)N[C@@H](COC(C)(C)C)C(=O)N(C)[C@@H](C)C(=O)N[C@H](C(=O)N2CCCCC2)CC(=O)N(C)[C@@H](C)C(=O)N(C)[C@@H](Cc2ccccc2)C(=O)N[C@@H](CCc2ccccc2)C(=O)N(C)[C@@H](CC(C)C)C(=O)N[C@@H]([C@@H](C)O)C(=O)N(C)CC(=O)N1C` [pd184] ([NMeA][NMeF][hPhe][NMeL]T[Sar][NMeL][NMehPhe]S(tBu)[NMeA]D-Piperidide; lactam N-11) were 1.2e-06 cm/s and 1.2 ×10⁻⁶ cm/s.
Taken in the same sequence, the figures for `CC(C)C[C@H]1C(=O)N[C@@H]([C@@H](C)O)C(=O)N(C)CC(=O)N(C)[C@@H](C(C)C)C(=O)N[C@@H](Cc2ccccc2)C(=O)N(C)[C@@H](Cc2cccc(Cl)c2)C(=O)N(C)[C@@H](CC(C)C)C(=O)N(C)[C@H](C(=O)N2CCCCC2)CC(=O)N2CCC[C@H]2C(=O)N[C@@H](Cc2ccccc2)C(=O)N[C@@H](COC(C)(C)C)C(=O)N1C` [pd162] (PFS(tBu)[NMeL]T[Sar][NMeV]F[NMePhe(3-Cl)][NMeL][NMeD]-Piperidide; lactam N-11) were 1.2e-06 cm/s and 1.2 ×10⁻⁶ cm/s.
For `CC(C)C[C@H]1C(=O)N[C@@H](COC(C)(C)C)C(=O)N(C)[C@@H](Cc2ccccc2)C(=O)N(C)[C@@H](C(C)C)C(=O)N[C@H](C(=O)N2CCCCC2)CC(=O)N[C@H](C(C)C)C(=O)N(C)[C@@H](Cc2ccccc2)C(=O)N[C@@H](COCc2cncc(F)c2)C(=O)N(C)[C@@H](CC(C)C)C(=O)N[C@@H]([C@@H](C)O)C(=O)N(C)CC(=O)N1C` [pd180] ([dV][NMeF]S(X2)[NMeL]T[Sar][NMeL]S(tBu)[NMeF][NMeV]D-Piperidide; lactam N-11), in the series with Caco-2 [3], the “Caco-2 (cm/sec)” value is recorded as 2 4E−06 cm/sec. The same molecule came in with a Papp in the series “in vitro” of 2.4 ×10⁻⁶ cm/s.
Consider `CCCCN1CC(=O)N(C)[C@@H](CC(C)C)C(=O)N[C@H](C(=O)N2CCCCC2)CC(=O)N(C)[C@@H](CC)C(=O)N[C@@H](CC(C)C)C(=O)N(C)[C@@H](CC(C)C)C(=O)N(C)[C@@H](Cc2ccccc2)C(=O)N[C@@H](COCCN2CCOCC2)C(=O)N(C)[C@@H](CC)C(=O)N(C)[C@@H](CC(C)C)C(=O)N[C@@H]([C@@H](C)O)C1=O` [pd482] ([NMeAbu]L[NMeL][NMeF]S(Ethyl(2-morpholino))[NMeAbu][NMeL]T[NBuGly][NMeL]D-Piperidide; lactam N-11), for which the Caco-2 in the series with Caco-2 [2] (Papp, membrane permeability, cyclic peptides comprising MeAbu(pip-4-F2), MeAbu(Mor), Ser(Et-2-Mor), MeAbu(pip-3-F2) or Abu(5-Oxo-Odz) (Table 29)) was 1.1e-06 cm/s.
As to `CC(C)C[C@H]1C(=O)N[C@@H](COC(C)(C)C)C(=O)N(C)[C@@H](Cc2ccccc2)C(=O)N(C)[C@@H](C(C)C)C(=O)N[C@H](C(=O)N2CCCCC2)CC(=O)N[C@H](C(C)C)C(=O)N(C)[C@@H](Cc2ccccc2)C(=O)N[C@@H](COc2cccc(Cl)c2)C(=O)N(C)[C@@H](C)C(=O)N[C@@H]([C@@H](C)O)C(=O)N(C)CC(=O)N1C` [pd187], the “Caco-2” value with Caco-2 [3] was 1.9e-06 cm/s. Further, the Papp in “in vitro” came out at 1.9 ×10⁻⁶ cm/s.
As a reminder, the pKa is the pH at which an ionisable group is half protonated. Read a high pKa as a group that holds its proton tightly. `CN[C@@H](CCc1noc(=O)[nH]1)C(=O)O` [MeAbu(5-Oxo-Odz)] showed a pKa in series [1] of 5.7.
Regarding `CC(C)C[C@H]1C(=O)N[C@@H](COC(C)(C)C)C(=O)N(C)[C@@H](Cc2ccccc2)C(=O)N(C)[C@@H](C(C)C)C(=O)N[C@H](C(=O)N2CCCCC2)CC(=O)N[C@H](C)C(=O)N(C)[C@@H](Cc2ccccc2)C(=O)NC(COc2cccc(Cl)c2)C(=O)N(C)[C@@H](C(C)C)C(=O)N[C@@H]([C@@H](C)O)C(=O)N(C)CC(=O)N1C` (stereo partly drawn) [pd185], the “Caco-2” value in the series with Caco-2 [3] was 2.2e-06 cm/s. This molecule showed a Papp in the series “in vitro” of 2.2 ×10⁻⁶ cm/s.
`CN[C@@H](CCN1CCCC(F)(F)C1)C(=O)O` [MeAbu(pip-3-F2)]: the pKa in series [1] came to 5.7.
